Biological target: human PCSK9 (Homo sapiens, UniProt Q8NBP7)
Test: PCSK9 ligand binding assay (TR-FRET): interference with binding of human PCSK9 to human LDLR
Details: for IC50: Human PCSK9 Alexa Fluor 647 / Human LDLR extracellular domain-Europium Kryptate; for Max % inhibition: efficacy (Amax), 100% = 1 uM unlabeled human PCSK9, 0% = DMSO
Protocol: Example 10: PCSK9 Ligand Binding Assay
The PCSK9 binding of the compounds of the disclosure were measured using a time resolved fluorescence resonance energy transfer (TR-FRET) assay. This time resolved fluorescence resonance energy transfer (TR-FRET) assay measures the ability of a compound of the present disclosure to interfere with the binding of human PCSK9 to human LDLR, providing measures of both potency (IC50) and efficacy (Amax).
Human PCSK9 Alexa Fluor 647
Human LDLR extracellular domain-Europium Kryptate
Proxi plate-low volume assay plate (PerkinElmer #6008280)
Greiner V-bottom (Greiner BioOne #781280)
Assay Buffer • 20 mM HEPES, pH 7.5 • 150 mM NaCl • 1 mM CaCl2 • 0.01% v/v Tween20 • 0.01% w/v BSA
A master compound plate was prepared in a Greiner V bottom plate by diluting compounds of the disclosure in dimethylsulfoxide to the correct concentration for the desired top concentration based on the desired final concentration: for a 30 uM final concentration the master plate concentration is 1.5 mM (68 uL DMSO+12 uL 10 mM of a compound of the disclosure), for a 10 uM final concentration the master plate concentration is 0.5 mM (76 uL DMSO+4 uL 10 mM of a compound of the disclosure), for a 3 uM final concentration the master plate concentration is 150 uM (69 uL DMSO+1 uL 10 mM of a compound of the disclosure). These solutions were pipetted into columns 1 and 11 of the compound plate. Threefold serial dilutions were generated in columns 2-10 and 12-20 of the compound plate by transferring 10 uL into 20 uL of DMSO. Columns 21 and 22 of the compound plate were negative controls containing DMSO alone.
An intermediate plate was generated in a Greiner V bottom plate by transferring 8 uL from each well of the master plate into a corresponding well containing 92 uL of assay buffer and mixing thoroughly.
A Proxi plate-low volume assay plate was used for the assay. To all wells of the plate was added 10 uL of 16 nM Human PCSK9 Alexa Fluor 647, followed by 5 uL from the intermediate plate. For the positive control wells in columns 23 and 24 of the plate, 5 uL of unlabeled human PCSK9 was added at 4 uM in assay buffer containing 8% DMSO. Following a 30 minute incubation, 5 uL of 4 nM Human LDLR extracellular domain-Europium Kryptate was added and the mixture was incubated for an additional 2 hours.
The TR-FRET signal was measured on an EnVision or PheraStar instrument with a 60 ms delay, 330 nm excitation and 665 nm emission (FRET), and 330 nm excitation and 615 nm (Europium). The FRET ratio (FRET/Europium) was used for calculations.
No inhibition (0%) was observed from the wells containing DMSO (Control) in columns 21 and 22 of the compound plate. Full inhibition (100%) was observed from the wells containing 1 uM human PCSK9 (Control) in columns 23 and 24 of the plate. Data is expressed as percent inhibition: (value—0%)/(100%-0%).

Chain of human PCSK9 (Q8NBP7 153-692): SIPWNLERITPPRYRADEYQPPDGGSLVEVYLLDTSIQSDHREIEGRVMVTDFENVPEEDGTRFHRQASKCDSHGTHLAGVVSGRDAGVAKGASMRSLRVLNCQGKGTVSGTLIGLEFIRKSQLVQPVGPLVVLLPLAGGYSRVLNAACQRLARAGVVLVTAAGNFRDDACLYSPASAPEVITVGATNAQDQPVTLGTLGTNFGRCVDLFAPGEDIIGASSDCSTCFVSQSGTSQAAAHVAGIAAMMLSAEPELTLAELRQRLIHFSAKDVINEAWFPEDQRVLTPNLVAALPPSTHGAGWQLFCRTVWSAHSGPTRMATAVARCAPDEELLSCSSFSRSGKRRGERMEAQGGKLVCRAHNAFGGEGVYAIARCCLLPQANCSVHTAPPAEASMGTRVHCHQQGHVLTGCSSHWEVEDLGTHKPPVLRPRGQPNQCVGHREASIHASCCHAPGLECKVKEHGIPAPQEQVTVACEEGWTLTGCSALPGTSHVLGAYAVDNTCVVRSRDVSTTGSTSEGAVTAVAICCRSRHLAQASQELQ
Chain of human PCSK9 (Q8NBP7 31-152 partner limits assumed): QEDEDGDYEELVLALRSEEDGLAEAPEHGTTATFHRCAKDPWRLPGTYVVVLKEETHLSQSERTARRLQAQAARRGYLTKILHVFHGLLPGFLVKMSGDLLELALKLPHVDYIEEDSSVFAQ

SMILES	IC50 [nM]	Max % inhibition [%]
C[C@H]1C(=O)N[C@@H](CC(=O)O)C(=O)N(C)[C@H](Cc2ccc(Cl)cc2)CN(C)C(=O)[C@H](Cc2ccccc2)CC(=O)N1Cc1ccc(Cl)cc1Oc1ccc(-c2cnc(CN3CCCC3)n2C)cc1.Cl [Compound 135, 2-((2S, 5S, 8R, 12R)-12-benzyl-1-(4-chloro-2-(4-(1-methyl-2-(pyrrolidin-1-ylmethyl)-1H-imidazol-5-yl)phenoxy)benzyl)-8-(4-chlorobenzyl)-2,7,10-trimethyl-3,6,11,14-tetraoxo-1,4,7,10-tetraazacyclotetradecan-5-yl)acetic acid]	631	91.3
COC[C@@H]1NC(=O)[C@H](C)N(Cc2ccc(Cl)cc2Oc2ccc(-c3cnc(CN(C)C)n3C)nc2)C(=O)C[C@@H](Cc2cccc(C)n2)C(=O)N2CCC[C@@](Cc3ccc(Cl)cc3)(C2)N(C)C1=O [Compound 24, (3R, 7S, 10S, 13R)-6-(4-chloro-2-((6-(2-((dimethylamino)methyl)-1-methyl-1H-imidazol-5-yl)pyridin-3-yl)oxy)benzyl)-13-(4-chlorobenzyl)-10-(methoxymethyl)-7,12-dimethyl-3-((6-methylpyridin-2-yl)methyl)-1,6,9,12-tetraazabicyclo[11.3.1]heptadecane-2,5,8,11-tetraone]	0.277	115.7
C[C@@H]1CC(=O)N(Cc2c(F)cc(Cl)cc2Oc2ccc(-c3cnc(CN(C)C)n3C)cc2)[C@@H](C)C(=O)N[C@@H](CO)C(=O)N(C)[C@@]2(Cc3ccc(Cl)cc3)CCCN(C2)C1=O [Compound 99, (3R, 7S, 10S, 13R)-6-(4-chloro-2-(4-(2-((dimethylamino)methyl)-1-methyl-1H-imidazol-5-yl)phenoxy)-6-fluorobenzyl)-13-(4-chlorobenzyl)-10-(hydroxymethyl)-3,7,12-trimethyl-1,6,9,12-tetraazabicyclo+11.3.1+heptadecane-2,5,8,11-tetraone]	2.86	116.6
CCc1ccc(CN2C(=O)C[C@@H]([C@@H]3CCc4ccccc43)C(=O)N(C)C[C@@H](Cc3ccc(Cl)cc3)N(C)C(=O)[C@@H](CO)NC(=O)[C@@H]2C)c(Oc2ccc(-c3cnc(CN(C)C)n3C)cc2)c1 [Compound 121]	91.5	92.9
COC[C@@H]1NC(=O)[C@H](C)N(Cc2ccc(Cl)cc2Oc2ccc(-c3cnc(CN4CCCC4)n3C)cc2)C(=O)C[C@@H](Cc2ccccc2)C(=O)N(C)C[C@@H](Cc2ccc(Cl)cc2)N(C)C1=O.Cl [Compound 114, (2S, 5S, 8R, 12R)-12-benzyl-1-(4-chloro-2-(4-(1-methyl-2-(pyrrolidin-1-ylmethyl)-1H-imidazol-5-yl)phenoxy)benzyl)-8-(4-chlorobenzyl)-5-(methoxymethyl)-2,7,10-trimethyl-1,4,7,10-tetraazacyclotetradecane-3,6,11,14-tetraone]	21.4	95.9

The remaining lines, values ahead:

IC50 [nM]	Max % inhibition [%]	SMILES
0.623	109.3	COC[C@@H]1NC(=O)[C@H](C)N(Cc2ccc(Cl)cc2Oc2ccc(-c3cnc(CN4CCC(O)CC4)n3C)cc2)C(=O)C[C@@H](Cc2ccccc2)C(=O)N2CCC[C@@](Cc3ccc(Cl)cc3)(C2)NC1=O.Cl [Compound 61]
0.963	110.7	C[C@H]1C(=O)N[C@@H](CO)C(=O)N[C@@]2(Cc3ccc(Cl)cc3)CCCN(C2)C(=O)[C@H](Cc2ccc(C(F)(F)F)cc2)CC(=O)N1Cc1ccc(Cl)cc1Oc1ccc(-c2cnc(CN(C)C)n2C)cc1 [Compound 62, (3R, 7S, 10S, 13R)-6-(4-chloro-2-(4-(2-((dimethylamino)methyl)-1-methyl-1H-imidazol-5-yl)phenoxy)benzyl)-13-(4-chlorobenzyl)-10-(hydroxymethyl)-7-methyl-3-(4-(trifluoromethyl)benzyl)-1,6,9,12-tetraazabicyclo[11.3.1]heptadecane-2,5,8,11-tetraone]
3.96	113.1	C[C@H]1C(=O)N[C@@H](CO)C(=O)N[C@@]2(Cc3ccc(Cl)cc3)CCCN(C2)C(=O)[C@H](CC2(C)CC2)CC(=O)N1Cc1c(F)cc(Cl)cc1Oc1ccc(-c2cnc(CN(C)C)n2C)cc1 [Compound 144, (3R, 7S, 10S, 13R)-6-(4-chloro-2-(4-(2-((dimethylamino)methyl)-1-methyl-1H-imidazol-5-yl)phenoxy)-6-fluorobenzyl)-13-(4-chlorobenzyl)-10-(hydroxymethyl)-7-methyl-3-((1-methylcyclopropyl)methyl)-1,6,9,12-tetraazabicyclo[11.3.1]heptadecane-2,5,8,11-tetraone]
0.562	103.2	C[C@H]1C(=O)N[C@@H](CO)C(=O)N[C@@]2(Cc3ccc(Cl)cc3)CCCN(C2)C(=O)[C@H](Cc2ccccn2)CC(=O)N1Cc1ccc(Cl)cc1Oc1ccc(-c2cnc(CN3CCCC3)n2C)cc1 [Compound 1, (3R,7S,10S,13R)-6-(4-Chloro-2-(4-(1-methyl-2-(pyrrolidin-1-ylmethyl)-1H-imidazol-5-yl)phenoxy)benzyl)-13-(4-chlorobenzyl)-10-(hydroxymethyl)-7-methyl-3-(pyridin-2-ylmethyl)-1,6,9,12-tetraazabicyclo[11.3.1]heptadecane-2,5,8,11-tetraone]
0.73	115.0	Cc1cccc(C[C@@H]2CC(=O)N(Cc3c(F)cc(Cl)cc3Oc3ccc(-c4cnc(CN(C)C)n4C)cc3)[C@@H](C)C(=O)N[C@@H](CO)C(=O)N(C)[C@@]3(Cc4ccc(Cl)cc4)CCCN(C3)C2=O)n1 [Compound 170, (3R,7S,10S,13R)-6-(4-chloro-2-(4-(2-((dimethylamino)methyl)-1-methyl-1H-imidazol-5-yl)phenoxy)-6-fluorobenzyl)-13-(4-chlorobenzyl)-10-(hydroxymethyl)-7,12-dimethyl-3-((6-methylpyridin-2-yl)methyl)-1,6,9,12-tetraazabicyclo[11.3.1]heptadecane-2,5,8,11-tetraone]
94.3	96.9	COC[C@H]1NC(=O)[C@H](C)N(Cc2ccc(Cl)cc2Oc2ccc(-c3cnc(CN(C)C)n3C)nc2)C(=O)C[C@@H](Cc2ccccc2)C(=O)N2CCC[C@@](Cc3ccc(Cl)cc3)(C2)NC1=O [Compound 122, (3R, 7S, 10R, 13R)-3-benzyl-6-(4-chloro-2-((6-(2-((dimethylamino)methyl)-1-methyl-1H-imidazol-5-yl)pyridin-3-yl)oxy)benzyl)-13-(4-chlorobenzyl)-10-(methoxymethyl)-7-methyl-1,6,9,12-tetraazabicyclo[11.3.1]heptadecane-2,5,8,11-tetraone]
0.584	104.5	C[C@H]1C(=O)N[C@@H](CO)C(=O)N[C@@]2(Cc3ccc(Cl)cc3)CCCN(C2)C(=O)CCC(=O)N1Cc1c(OCC(F)(F)F)cc(Cl)cc1Oc1ccc(-c2cnc(CN(C)C)n2C)cc1 [Compound 36, (7S, 10S, 13R)-6-(4-chloro-2-(4-(2-((dimethylamino)methyl)-1-methyl-1H-imidazol-5-yl)phenoxy)-6-(2,2,2-trifluoroethoxy)benzyl)-13-(4-chlorobenzyl)-10-(hydroxymethyl)-7-methyl-1,6,9,12-tetraazabicyclo[11.3.1]heptadecane-2,5,8,11-tetraone]
0.327	102.6	COC[C@@H]1NC(=O)[C@H](C)N(Cc2ncc(Cl)cc2Oc2ccc(-c3cnc(CN(C)C)n3C)cc2)C(=O)C[C@@H](Cc2ccccc2)C(=O)N2CCC[C@@](Cc3ccc(Cl)cc3)(C2)NC1=O [Compound 17, (3R, 7S, 10S, 13R)-3-benzyl-6-((5-chloro-3-(4-(2-((dimethylamino)methyl)-1-methyl-1H-imidazol-5-yl)phenoxy)pyridin-2-yl)methyl)-13-(4-chlorobenzyl)-10-(methoxymethyl)-7-methyl-1,6,9,12-tetraazabicyclo[11.3.1]heptadecane-2,5,8,11-tetraone]
